≈ marks a conversion by molar mass, not a printed value.
Assays:
[1] = tested on: Scopulariopsis Brevicaulis (ATCC 36840); assay: Broth micro-dilution susceptibility test (MIC); type: cell-based; details: ATCC36840, 120 h, geometric mean of two single experiments, five days at 35° C.
Description: (§1) Trichophyton Rubrum (ATCC 28188, PBI International); Trichophyton Mentagrophytes (ATCC 9533, PBI International); Aspergillus Niger (ATCC 16404, PBI International); Scopulariopsis Brevicaulis (ATCC 36840, DSMZ); Candida Albicans (ATCC 90028, PBI International); Candida Glabrata (ATCC 90030, DSMZ).
(§2) Strains were prepared from freeze-dried ampoules or freeze-dried pellets. An isolation of the suspensions was made on Potato Dextrose Agar (PDA) to test the strains purity. A strains' massive growth was then made streaking microbial suspensions on PDA plates.
(§3) Incubation was at 30° C. for 48-72 Hours (Candida yeasts) and for 7-10 days (filamentous fungi).
(§4) The yeasts' colonies and the filamentous fungi's conidia were harvested with 3-5 mL of RPMI 1640+50% glycerol and the aliquots frozen at −80° C.
(§5) Compounds' minimal inhibition concentration (MIC) was determined through broth micro-dilution susceptibility test using a method developed in agreement with the National Committee for Clinical Laboratory Standards (NCCLS) (National Committee for Clinical Laboratory Standards. Reference Method for Broth Dilution Antifungal Susceptibility Testing of Yeasts; Approved standard-Second Edition M27-A2. 2002; Vol. 22, No. 15) (National Committee for Clinical Laboratory Standards. Reference Method for Broth Dilution Antifungal Susceptibility Testing of Filamentous Fungi; Approved standard M38-A. 2002; Vol. 22, No. 16).
(§6) Assays were carried out in RPMI 1640 with L-glutamine medium buffered to pH 7 with 0.165M 3-(N-morpholino)propanesulfonic acid (MOPS) and 10M NaOH and supplemented with 18 g glucose/liter. The tests were performed using 96 well sterile plates (inoculum size of 1×10^5 CFU/mL). Compounds stock solutions were prepared at 12.8 mg/mL in 100% DMSO. A series of twofold dilutions were prepared in plate using RPMI 1640. Final concentrations ranged from 0.125 to 128 μg/mL at 1% DMSO.

[2] = tested on: Candida Glabrata (ATCC 90030); assay: Broth micro-dilution susceptibility test (MIC); type: cell-based; details: Nakaseomyces glabratus, ATCC90030; geometric mean of two single experiments; 48 h at 35° C.
Description: as §1, §2, §3, §4, §5, §6

[3] = tested on: Trichophyton Mentagrophytes (ATCC 9533); assay: Broth micro-dilution susceptibility test (MIC); type: cell-based; details: ATCC9533, 120 h, geometric mean of two single experiments, five days at 35° C., read-out: MIC Tricophyton Mentagrophytes ATCC 9533
Description: as §1, §2, §3, §4, §5, §6

[4] = tested on: Candida Albicans (ATCC 90028); assay: Broth micro-dilution susceptibility test (MIC); type: cell-based; details: ATCC90028, geometric mean of two single experiments, 48 h at 35° C.
Description: as §1, §2, §3, §4, §5, §6

[5] = tested on: Trichophyton Rubrum (ATCC 28188); assay: Broth micro-dilution susceptibility test (MIC); type: cell-based; details: ATCC28188, 120 h, geometric mean of two single experiments, five days at 35° C., read-out: MIC Trycophyton Rubrum ATCC 28188
Description: as §1, §2, §3, §4, §5, §6

[6] = tested on: Aspergillus Niger (ATCC 16404); assay: Broth micro-dilution susceptibility test (MIC); type: cell-based; details: ATCC16404, 120 h, geometric mean of two single experiments, five days at 35° C.
Description: as §1, §2, §3, §4, §5, §6

[7] = tested on: Candida Glabrata (ATCC 90030); assay: Assessment of the mechanism of action: antifungal activity with or without 100 μM Fe3+; type: cell-based; details: 100 μM FeCl3 in the test medium, OD at 540 nm
Description: To verify if the compounds mechanism of action is the chelation of iron ions, the MIC determination with Candida glabrata (ATCC 90030) strain was performed by the addition of excessive iron ions (100 μM FeCl3) in the test medium. The viability of cells exposed to drugs, with or without the metal ion Fe^3+, was evaluated by the OD measure at 540 nm.
The potency of compounds described in Example 3, 4, 11 12, E8 and NiK-29298 were evaluated on Candida glabrata in presence and in absence of 100 μM (100 micromoles) Fe^3+.
In all figures, the lines and dots represent the percent inhibition of the fungal growth (in ordinate) by adding different concentrations of antifungal agents (in abscissa). Blue lines and dots are the experiments performed without iron supplementation, while red lines and dots represent the results of the experiments performed in presence of 100 μM Fe^3+. […] Conversely, Fe^3+ has no effect on amphotericin, an antifungal agent known in the art to have a mechanism of action different from that of ciclopirox.

[8] = tested on: 6 strains tested, including yeasts, dermatophytes and molds; assay: Spectrum of antifungal activity over the 6 strains tested; type: cell-based; details: 6 strains: yeasts
Description: as §1, §5, §6

invasive aspergillosis = details: daily administered at 10 mg/kg; cited from earlier work

MIC [1] [µg/mL] | MIC [2] [µg/mL] | MIC [3] [µg/mL] | MIC [4] [µg/mL] | MIC [5] [µg/mL] | MIC [6] [µg/mL] | Compound | Effect of Fe3+ on the antifungal activity (percent inhibition of fungal growth) [7] | Spectrum of antifungal activity [8] | rates of nephrotoxicity (invasive aspergillosis) [%]
0.71 (≈ 2.41 µM) | 0.71 (≈ 2.41 µM) | 0.5 (≈ 1.7 µM) | 0.5 (≈ 1.7 µM) | 0.35 (≈ 1.19 µM) | 0.71 (≈ 2.41 µM) | COc1ccc(NC(=O)c2ccc3cccnc3c2O)cc1 [Example 5, 8-Hydroxy-N-(4-methoxyphenyl)quinoline-7-carboxamide] |  |  | 
1.41 (≈ 4.07 µM) | 1.41 (≈ 4.07 µM) | 1 (≈ 2.89 µM) | 1.41 (≈ 4.07 µM) | 1.41 (≈ 4.07 µM) | 0.5 (≈ 1.44 µM) | O=C(NCc1ccc(C(F)(F)F)cc1)c1ccc2cccnc2c1O [Example 6, 8-Hydroxy-N-(4-(trifluoromethyl)benzyl)quinoline-7-carboxamide] |  |  | 
2 (≈ 7.57 µM) | 1 (≈ 3.78 µM) | 0.71 (≈ 2.69 µM) | 0.5 (≈ 1.89 µM) | 0.5 (≈ 1.89 µM) | 0.5 (≈ 1.89 µM) | O=C(Nc1ccccc1)c1ccc2cccnc2c1O [Example 7, 8-Hydroxy-N-phenyl-quinoline-7-carboxamide] |  |  | 
1 (≈ 3.4 µM) | 2 (≈ 6.8 µM) | 0.5 (≈ 1.7 µM) | 2 (≈ 6.8 µM) | 0.71 (≈ 2.41 µM) | 0.25 (≈ 0.849 µM) | O=C(NCc1ccccc1O)c1ccc2cccnc2c1O [Example 8, 8-Hydroxy-N-(2-hydroxybenzyl)quinoline-7-carboxamide] |  |  | 
0.71 (≈ 2.65 µM) | 0.71 (≈ 2.65 µM) | 1 (≈ 3.73 µM) | 0.71 (≈ 2.65 µM) | 0.71 (≈ 2.65 µM) | 1 (≈ 3.73 µM) | O=C(NCc1ccco1)c1ccc2cccnc2c1O [Example 9, 8-Hydroxy-N-(furan-2-ylmethyl)quinoline-7-carboxamide] |  |  | 
1 (≈ 3.58 µM) | 11.3 (≈ 40.5 µM) | 2 (≈ 7.16 µM) | 4 (≈ 14.3 µM) | 2 (≈ 7.16 µM) | 1 (≈ 3.58 µM) | O=C(NCc1cccnc1)c1ccc2cccnc2c1O [Example 10, 8-Hydroxy-N-(pyridin-3-ylmethyl)quinoline-7-carboxamide] |  |  | 
1 (≈ 3.24 µM) |  | 1 (≈ 3.24 µM) | 2 (≈ 6.49 µM) | 1 (≈ 3.24 µM) | 1 (≈ 3.24 µM) | COc1ccc(CNC(=O)c2ccc3cccnc3c2O)cc1 [Example 11, 8-Hydroxy-N-(4-methoxybenzyl)quinoline-7-carboxamide] |  |  | 

Second part, the compound before the results:

Compound | MIC [1] [µg/mL] | MIC [2] [µg/mL] | MIC [3] [µg/mL] | MIC [4] [µg/mL] | MIC [5] [µg/mL] | MIC [6] [µg/mL] | Effect of Fe3+ on the antifungal activity (percent inhibition of fungal growth) [7] | Spectrum of antifungal activity [8] | rates of nephrotoxicity (invasive aspergillosis) [%]
O=C(NCc1cccs1)c1ccc2cccnc2c1O [Example 1, 8-Hydroxy-N-(thiophen-2-ylmethyl)quinoline-7-carboxamide] | 0.25 (≈ 0.879 µM) | 1 (≈ 3.52 µM) | 0.5 (≈ 1.76 µM) | 1 (≈ 3.52 µM) | 0.5 (≈ 1.76 µM) | 0.25 (≈ 0.879 µM) |  |  | 
O=C(NCC1CCCCC1)c1ccc2cccnc2c1O [Example 2, 8-Hydroxy-N-(cyclohexylmethyl)quinoline-7-carboxamide] | 2 (≈ 7.03 µM) | 1.41 (≈ 4.96 µM) | 0.71 (≈ 2.5 µM) | 1.41 (≈ 4.96 µM) | 1 (≈ 3.52 µM) | 0.35 (≈ 1.23 µM) |  |  | 
O=C(NCc1ccccc1)c1ccc2cccnc2c1O [Example 3, 8-Hydroxy-N-benzyl-quinoline-7-carboxamide] | 0.35 (≈ 1.26 µM) | 1 (≈ 3.59 µM) | 0.18 (≈ 0.647 µM) | 1 (≈ 3.59 µM) | 0.35 (≈ 1.26 µM) | 0.18 (≈ 0.647 µM) |  |  | 
O=C(NCc1ccc(Cl)cc1)c1ccc2cccnc2c1O [Example 4, 8-Hydroxy-N-(4-chlorobenzyl)quinoline-7-carboxamide] | 0.71 (≈ 2.27 µM) | 1 (≈ 3.2 µM) | 0.5 (≈ 1.6 µM) | 2 (≈ 6.39 µM) | 0.71 (≈ 2.27 µM) | 0.35 (≈ 1.12 µM) |  |  | 
O=C(NCc1ccc(OCc2ccccc2)cc1)c1ccc2ncccc2c1 [Example E8] |  |  |  |  |  |  | not inhibited | active only on yeasts | 
O=C(NCc1ccccc1)c1ccc2ncccc2c1 [NiK-29298] |  |  |  |  |  |  | not inhibited | active only on yeasts | 
C[C@@H]1[C@H](O)[C@@H](C)/C=C/C=C/C=C/C=C/C=C/C=C/C=C/[C@H](O[C@@H]2O[C@H](C)[C@@H](O)[C@H](N)[C@@H]2O)C[C@@H]2O[C@](O)(C[C@@H](O)C[C@@H](O)[C@H](O)CC[C@@H](O)C[C@@H](O)CC(=O)O[C@H]1C)C[C@H](O)[C@H]2C(=O)O [amphotericin, Amphotericin B] |  |  |  |  |  |  | no effect |  | 31
Cc1cc(C2CCCCC2)n(O)c(=O)c1 [ciclopirox] |  |  |  |  |  |  | completely inhibited |  | 

Reference: patent publication US8969380B2, “Secondary 8-hydroxyquinoline-7-carboxamide derivatives for use as antifungal agents” (Polichem SA, priority 2009, dated 2015)
